Reference: PubChem BioAssay (NCI)
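Five concentrations, 48 hours, 96-well plates. At the TGI there is no net growth.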

Key:
Test in all cases: DTP human tumour cell line panel, 48 h
UACC-257 melanoma = test system: UACC-257 melanoma
A549 NSCLC = test system: A549 NSCLC
HL-60(TB) leukemia = test system: HL-60(TB) leukemia
SN12C renal = test system: SN12C renal
EKVX NSCLC = test system: EKVX NSCLC
OVCAR-4 ovarian = test system: OVCAR-4 ovarian
MDA-N = test system: MDA-N
SF-295 CNS = test system: SF-295 CNS
IGROV1 ovarian = test system: IGROV1 ovarian
A498 renal = test system: A498 renal
SF-268 CNS = test system: SF-268 CNS
OVCAR-3 ovarian = test system: OVCAR-3 ovarian
M14 melanoma = test system: M14 melanoma
HCT-15 colon = test system: HCT-15 colon
UO-31 renal = test system: UO-31 renal
HOP-62 NSCLC = test system: HOP-62 NSCLC
RPMI-8226 leukemia = test system: RPMI-8226 leukemia
CAKI-1 renal = test system: CAKI-1 renal
SK-MEL-28 melanoma = test system: SK-MEL-28 melanoma
UACC-62 melanoma = test system: UACC-62 melanoma
ACHN renal = test system: ACHN renal
SF-539 CNS = test system: SF-539 CNS
OVCAR-5 ovarian = test system: OVCAR-5 ovarian
SK-OV-3 ovarian = test system: SK-OV-3 ovarian
CCRF-CEM leukemia = test system: CCRF-CEM leukemia
MDA-MB-435 = test system: MDA-MB-435
HCT-116 colon = test system: HCT-116 colon
SR leukemia = test system: SR leukemia
HCC-2998 colon = test system: HCC-2998 colon
NCI/ADR-RES ovarian = test system: NCI/ADR-RES ovarian
BT-549 breast = test system: BT-549 breast
MOLT-4 leukemia = test system: MOLT-4 leukemia
COLO 205 colon = test system: COLO 205 colon
NCI-H460 lung = test system: NCI-H460 lung
TK-10 renal = test system: TK-10 renal
SW-620 colon = test system: SW-620 colon
DU-145 prostate = test system: DU-145 prostate
LOX IMVI melanoma = test system: LOX IMVI melanoma
NCI-H226 lung = test system: NCI-H226 lung
U251 CNS = test system: U251 CNS
MDA-MB-231 breast = test system: MDA-MB-231 breast
K-562 leukemia = test system: K-562 leukemia
PC-3 prostate = test system: PC-3 prostate
MALME-3M melanoma = test system: MALME-3M melanoma
OVCAR-8 ovarian = test system: OVCAR-8 ovarian
KM12 colon = test system: KM12 colon
SK-MEL-2 melanoma = test system: SK-MEL-2 melanoma
NCI-H522 lung = test system: NCI-H522 lung
HS 578T breast = test system: HS 578T breast
HT29 colon = test system: HT29 colon
NCI-H23 lung = test system: NCI-H23 lung
SNB-19 CNS = test system: SNB-19 CNS
786-0 renal = test system: 786-0 renal
SK-MEL-5 melanoma = test system: SK-MEL-5 melanoma
MCF7 breast = test system: MCF7 breast
T-47D breast = test system: T-47D breast
RXF 393 renal = test system: RXF 393 renal
HOP-92 NSCLC = test system: HOP-92 NSCLC
SNB-75 CNS = test system: SNB-75 CNS

Measured: TGI

Clc1ccc(CCN[C@H]2CCCC[C@H]2N2CCCC2)cc1Cl
28.5 µM: UACC-257 melanoma | SK-MEL-5 melanoma
86.2 µM: SK-MEL-28 melanoma
49.5 µM: HCT-15 colon
48.2 µM: HOP-62 NSCLC
59.9 µM: BT-549 breast
32.4 µM: LOX IMVI melanoma
77 µM: 786-0 renal
89.6 µM: A549 NSCLC
58.4 µM: NCI-H460 lung
69.5 µM: SNB-19 CNS
29.8 µM: COLO 205 colon
49.9 µM: HT29 colon
50 µM: HL-60(TB) leukemia
78.2 µM: SK-OV-3 ovarian
65.2 µM: OVCAR-3 ovarian
32.9 µM: NCI-H522 lung
38.5 µM: MDA-N
31.2 µM: UO-31 renal
89.4 µM: OVCAR-4 ovarian
43.8 µM: MDA-MB-435
22.9 µM: TK-10 renal
35.7 µM: MCF7 breast
75.3 µM: SF-539 CNS
44.1 µM: SK-MEL-2 melanoma
22.3 µM: HCC-2998 colon
59.8 µM: DU-145 prostate
54.3 µM: SN12C renal
34.9 µM: UACC-62 melanoma
35.1 µM: IGROV1 ovarian | KM12 colon
30.3 µM: M14 melanoma | MALME-3M melanoma
48.7 µM: NCI-H226 lung
97.1 µM: RPMI-8226 leukemia
30.2 µM: SF-295 CNS
58.8 µM: NCI-H23 lung
40.5 µM: A498 renal
78.1 µM: OVCAR-5 ovarian
not listed: T-47D breast | RXF 393 renal | HOP-92 NSCLC | SNB-75 CNS
> 100 µM: all other assays above

CCCc1cc(COC)c(C#N)c(=O)[nH]1
not listed: SR leukemia | SK-MEL-2 melanoma | HOP-92 NSCLC | SNB-75 CNS
> 100 µM: all other assays above

CN(CCCNC(=O)c1cn(C)c2c1Cc1ccccc1-2)CCCNC(=O)c1cn(C)c2c1Cc1ccccc1-2
20.2 µM: U251 CNS
25.1 µM: TK-10 renal
41.4 µM: NCI-H226 lung
28.4 µM: CAKI-1 renal | SK-MEL-5 melanoma
18.9 µM: UACC-257 melanoma
16.4 µM: MOLT-4 leukemia
39.2 µM: BT-549 breast
17 µM: K-562 leukemia
27 µM: SN12C renal
32.6 µM: SK-OV-3 ovarian
29.9 µM: OVCAR-5 ovarian
22.7 µM: PC-3 prostate
29.2 µM: HOP-62 NSCLC
24.1 µM: SNB-19 CNS
27.6 µM: UACC-62 melanoma
22.2 µM: HCT-116 colon
24.5 µM: MALME-3M melanoma
21.8 µM: IGROV1 ovarian | UO-31 renal
29.5 µM: NCI-H23 lung
27.4 µM: MDA-MB-231 breast
28 µM: NCI/ADR-RES ovarian
26.8 µM: OVCAR-4 ovarian | A498 renal
31.8 µM: SF-539 CNS
22.6 µM: EKVX NSCLC
21.3 µM: SF-268 CNS
31.3 µM: OVCAR-3 ovarian
29.8 µM: OVCAR-8 ovarian
25.2 µM: HCT-15 colon | HS 578T breast
4.05 µM: COLO 205 colon
28.6 µM: HL-60(TB) leukemia
5.7 µM: HT29 colon
> 100 µM: RPMI-8226 leukemia
11.1 µM: SR leukemia
24.6 µM: LOX IMVI melanoma
23.8 µM: NCI-H460 lung
11.6 µM: M14 melanoma
26.2 µM: SF-295 CNS
5.16 µM: MDA-MB-435
7.89 µM: HOP-92 NSCLC
32.3 µM: A549 NSCLC
17.2 µM: CCRF-CEM leukemia
18.5 µM: SW-620 colon
30.6 µM: SK-MEL-2 melanoma
25.4 µM: MCF7 breast
12.3 µM: MDA-N
24 µM: SK-MEL-28 melanoma
22.9 µM: ACHN renal
17.9 µM: 786-0 renal
26.9 µM: KM12 colon
34.9 µM: RXF 393 renal

Cn1c2c(c3ccccc31)CCN1C(=O)CCC21 (configuration not stated)
not listed: A549 NSCLC | UACC-62 melanoma | HCT-116 colon | BT-549 breast
> 10 µM: all other assays above

COC(=O)CCNC(=O)OCc1ccccc1
not listed: OVCAR-4 ovarian | RXF 393 renal | HOP-92 NSCLC
> 100 µM: all other assays above

COc1cccc(/C=C2\S/C(=N/Nc3nc(C)c(C)s3)NC2=O)c1O
73.8 µM: T-47D breast
not listed: RPMI-8226 leukemia | CCRF-CEM leukemia | SR leukemia | K-562 leukemia | PC-3 prostate | MALME-3M melanoma | NCI-H522 lung | HS 578T breast
> 100 µM: all other assays above

COc1ccc2c(c1)CCCN1CCc3ccccc3C21 (configuration not stated)
61.2 µM: SR leukemia
72.2 µM: MDA-MB-231 breast
77.7 µM: SN12C renal
72.1 µM: HCT-116 colon
80 µM: NCI-H226 lung
94 µM: HS 578T breast
49.5 µM: NCI/ADR-RES ovarian
51.5 µM: M14 melanoma
75.8 µM: SF-539 CNS
66.1 µM: SNB-75 CNS
43.2 µM: MDA-MB-435
69.9 µM: 786-0 renal
95.4 µM: U251 CNS
79.1 µM: SF-295 CNS
83.1 µM: UACC-62 melanoma
52.9 µM: MDA-N
59.3 µM: COLO 205 colon
43.3 µM: HL-60(TB) leukemia
73 µM: RXF 393 renal
not listed: UO-31 renal | RPMI-8226 leukemia | BT-549 breast
> 100 µM: all other assays above
